Read-outs that look alike come from different tables or passages of the source.
Key:
MVLN cells = experiment: Transactivation assay, MVLN cells transfixed with reporter gene Vit-TK-LUC; assay type: cell-based; settings: Homo sapiens, read-out: IC50 [nM] MVLN cells
Method: (§1) The antiestrogenic action of the compounds according to the invention was determined in transactivation assays [Demirpence, E.; Duchesne M.-J.; Badia, E.; Gagne, D. and Pons, M.: MVLN Cells: A Bioluminescent MCF-7-Derived Cell Line to Study the Modulation of Estrogenic Activity; J. Steroid. Molec. Biol. Vol. 46, No. 3, 355-364 (1993) as well as Berry, M.; Metzeger D.; Chambon, P.: Role of the Two Activating Domains of the Estrogen Receptor in the Cell-type and Promoter-context Dependent Agonistic Activity of the Anti-estrogen 4-Hydroxytamoxifen; The EMBO Journal Vol. 9, 2811-2818 (1990)].
The IC50 values for the new compounds lie in the nanomolar range. […] The HeLa cells are transfixed with human estrogen receptor-expression vector (HEGO) and Vit-TK-CAT reporter genes, and the MVLN cells are transfixed with reporter gene Vit-TK-LUC: […]

[1] = system: DMBA-induced breast cancer; experiment: DMBA-induced breast cancer in rats; assay type: in vivo, rat; settings: for inhibition of tumor growth: oral, 3 mg/kg/day (FIG. 4)
Text: 2.2 DMBA*-induced breast cancer in rats
2.2. Influencing Tumor Growth in the […] Model in Rats (DMBA Tumor Model)
*9,10-Dimethyl-1,2-benanthracene
The growth of the DMBA-induced breast neoplasm of rats is largely dependent on estrogens and prolactin. Active antiestrogens, antigestagens, and aromatase inhibitors result in the inhibition of tumor growth, and substances that have antigonadotropic and androgenic properties also exert a tumor-inhibiting action.
45-47-day-old female rats (Sprague-Dawley, breeder ZiH or Mollegard), 8-10 animals per group.
The animals receive 10 mg of DMBA orally on a one-time basis. Then, the animals are examined weekly by palpation for tumor development. Six to 10 weeks after DNBA treatment, approximately 1 to 10 tumors develop per animal. The tumor size is determined once a week with the aid of a sliding gauge. If at least one tumor has reached a specific size (150 mm^2 of tumor surface area), an ovariectomy is performed on the animals, or the treatment of the animals with the test substance begins. The treatment is carried out in most cases daily for a period of about 28 days (for details on execution, see Test Plan). The tumor size is subsequently determined once a week.
The total tumor size per animal is determined before the beginning of treatment (initial values). For each group, the average values of the percentage changes of the tumor size relative to the initial value are then calculated. In addition, the percentage of animals per group is determined, whose tumors in each case: (1) have totally disappeared (total regression); partially disappeared (partial regression); (3) are unchanged (no change); or (4) are further enlarged (enlargement).
(§2) The values that are found are tested for significance in the Dunnett Test and are plotted graphically.

human estrogen receptor = biological target: T1, human estrogen receptor (Homo sapiens, UniProt P03372); experiment: Transactivation assay, HeLa cells transfixed with human estrogen receptor-expression vector (HEGO) and Vit-TK-CAT reporter gene; assay type: cell-based
T1 construct: expressed in transfected cells; host or cells: HeLa
T1 sequence (P03372 1-595): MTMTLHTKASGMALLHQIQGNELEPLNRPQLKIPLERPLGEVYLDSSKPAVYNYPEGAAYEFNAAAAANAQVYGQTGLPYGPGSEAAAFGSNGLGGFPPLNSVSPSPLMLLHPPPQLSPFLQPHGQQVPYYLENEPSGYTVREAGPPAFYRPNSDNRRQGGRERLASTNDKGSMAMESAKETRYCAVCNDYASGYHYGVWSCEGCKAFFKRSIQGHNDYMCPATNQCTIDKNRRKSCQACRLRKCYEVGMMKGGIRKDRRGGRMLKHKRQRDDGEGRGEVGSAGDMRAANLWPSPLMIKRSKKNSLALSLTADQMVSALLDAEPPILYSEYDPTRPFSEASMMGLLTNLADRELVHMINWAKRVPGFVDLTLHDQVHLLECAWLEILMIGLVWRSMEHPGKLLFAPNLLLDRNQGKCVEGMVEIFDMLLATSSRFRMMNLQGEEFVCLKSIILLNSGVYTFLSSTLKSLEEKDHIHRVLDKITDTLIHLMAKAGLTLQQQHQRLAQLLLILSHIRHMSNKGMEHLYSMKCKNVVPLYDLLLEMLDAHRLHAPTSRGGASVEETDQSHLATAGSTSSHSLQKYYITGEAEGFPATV
Method: as §1
The HeLa cells are transfixed with human estrogen receptor-expression vector (HEGO) and Vit-TK-CAT reporter genes, and the MVLN cells are transfixed with reporter gene Vit-TK-LUC: […]

[2] = system: uterus growth (estradiol benzoate); experiment: Uterus growth test in infantile rats (antiestrogenic action); assay type: in vivo, rat; settings: differences highly significant (FIG. 1 and 2)
Text: 1. Uterus growth test in infantile rats, s.c. and p.o. (test for antiestrogenic action)
1. Uterus Growth Test in Infantile Rats (Antiestrogenic Action)
In rodents, the uterus reacts to the administration of estrogens with an increase in weight (both proliferation and water retention). This growth is to be inhibited in a dose-dependent-manner by simultaneous administration of compounds with an antiestrogenic action.
Infantile female rats at a weight of 35-45 g at the beginning of the test, 5-6 animals per dose.
Formulation and Administration of the Substances: […]
Both for s.c. and for p.o. administration, the substances are dissolved in 1 part of ethanol (E) and made up with 9 parts of peanut oil (EO).
Young rats that have just been weaned from their mothers are delivered one day before the beginning of treatment for acclimatization and are immediately supplied with food--still in the animal cage. […] The wet weights (without contents) are determined from the prepared uteri. […]
For each group, the average values with standard deviation (X+SD), as well as the significance of the differences compared to the control group (EB) in the Dunnett Test (p<0.05), are determined from the relative organ weights (mg/100 g of body weight). […] The relative effects of the test substances are determined by covariance and regression analysis.

MXT breast neoplasm = experiment: Tumor-inhibiting effect on hormone-dependent MXT(+) breast cancer in mice; assay type: in vivo, mouse; settings: oral
Text: 2.1 MXT breast neoplasm in mice 2.1. Tumor-Inhibiting Effect on Hormone-Dependent […] Cancer in Mice Principle of the Method The MXT(+)-breast cancer is an estrogen- and progesterone receptor-positivetumor that was originally produced by induction with urethane and is then transplanted onward in series. Growth can be inhibited by ovariectomy and antiestrogens. This model is therefore very well suited for studying the tumor-inhibiting action of endocrinotherapeutic agents. Execution of the Test Animal Material Adult, female BDFI-mice (7-10 weeks old; weight 18-21 g). Standard care conditions. Formulation and Administration of Test Substances The test substances are dissolved in ethanol+peanut oil (1+9), and the one-time dose is administered at a volume of 0.1 ml s.c. In the case of oral administration, the test substance is dissolved in ethanol+peanut oil (1+9), and the daily dose is administered at a volume of 0.1 ml. The treatment begins either immediately after tumor implantation or 2-3 weeks thereafter (treatment of established tumors). […] Tumor growth is determined by ascertaining the tumor surface area with the aid of a sliding gauge. The tumor surface area is calculated from the product of the longest diameter and the tumor diameter that is perpendicular to said longest diameter. […] Analysis Average values ±SE of tumor surface areas are determined. […]

[3] = system: NMU-induced breast cancer; experiment: NMU-induced breast cancer in rats; assay type: in vivo, rat
Text: 2.3 NNMU^+ -induced breast cancer in rats
2.3 Influencing of Tumor Growth in the NMU^+ Model in Rats (MM Tumor Model)
^+ N-Methyl-N-nitrosourea
The growth of the NMU-induced breast neoplasm of rats is largely dependent on estrogens and, in contrast to the DMBA tumor model, less on prolactin. Active antiestrogens, aromatase inhibitors, and antigestagens lead to the inhibition of tumor growth. Substances with antigonadotrophic properties also exert a tumor-inhibiting action.
Female rats (Sprague-Dawley)
NMU=i.v., test substance: s.c./p.o. […]
p.o. = 0.1 or 0.2 ml/100 g/d in ethanol + peanut oil (1 + 9)
s.c. = 0.1 ml/100 g/d in ethanol + peanut oil (1 + 9)
The animals receive 50 mg/kg of NMU i.v. on a one-time basis. Then, the animals are examined once a week by palpation for tumor development. About 6-8 weeks after NMU treatment, one or more tumors develop per animal. At a minimum size of 150 mm^2 /tumor/animal, daily treatment (7× a week) begins with the test substance, and the determination of body weight+tumor size is done (with the aid of a sliding gauge) (1×/week).
as §2

C[C@]12CC[C@@H]3c4ccc(O)cc4C[C@@H](CCCCCCCCC[S+]([O-])CCCC(F)(F)C(F)(F)F)[C@H]3[C@@H]1CC[C@@H]2O (stereo partly drawn) [Reference, 7α-[9-(4,4,5,5,5-pentafluoropentanesulfinyl)-nonyl]-estra-1,3,5(10)-triene-3,17β-diol, reference compound]
IC50 (MVLN cells; MVLN cells, Vit-TK-LUC): 6 nM | inhibition of tumor growth [1]: only a slight action

CN(CCCCC[C@@H]1Cc2cc(O)ccc2[C@H]2CC[C@]3(C)[C@@H](O)CC[C@H]3[C@H]12)CCCSCCCC(F)(F)C(F)(F)F [Example 1, 7α-{5-[N-Methyl-N-3-(4,4,5,5,5-pentafluoropentylthio)-propylamino]-pentyl}-estra-1,3,5(10)-triene-3,17β-diol]
IC50 (human estrogen receptor): 0.3 nM | IC50 (MVLN cells; MVLN): 1 nM | relative antiestrogenic activity vs 7α-[9-(4,4,5,5,5-pentafluoropentanesulfinyl)-nonyl]-estra-1,3,5(10)-triene-3,17β-diol ([2]; oral administration): 4.7 times | relative antiestrogenic activity vs 7α-[9-(4,4,5,5,5-pentafluoropentanesulfinyl)-nonyl]-estra-1,3,5(10)-triene-3,17β-diol ([2]; subcutaneous administration): 5.4 times | inhibition of tumor growth (MXT breast neoplasm; 14 days of treatment, 10 mg/kg/day (FIG. 3)): inhibits tumor growth as strongly as an ovariectomy | activity compared to 7α-[9-(4,4,5,5,5-pentafluoropentanesulfinyl)-nonyl]-estra-1,3,5(10)-triene-3,17β-diol (MXT breast neoplasm; MXT, 14 days, 10 mg/kg/day): more strongly active | activity compared to tamoxifen (TAM) ([1]; DMBA, oral (FIG. 4)): even more strongly active than tamoxifen (TAM) | inhibition of tumor growth [1]: completely inhibits tumor growth (no growth) | activity compared to 7α-[9-(4,4,5,5,5-pentafluoropentanesulfinyl)-nonyl]-estra-1,3,5(10)-triene-3,17β-diol ([3]; NMU, oral): clearly more strongly active | inhibition of tumor growth ([3]; oral, 10 mg/kg/day): complete inhibition of tumor growth | inhibition of tumor growth, dose dependence ([3]; orally administered (FIG. 5)): inhibits tumor growth in a dose-dependent manner

CN(CCCCC[C@@H]1Cc2cc(O)ccc2[C@H]2CC[C@]3(C)[C@@H](O)CC[C@H]3[C@H]12)CCS(=O)(=O)CCCC(F)(F)C(F)(F)F [Example 4, 7α-{5-[N-Methyl-N-2-(4,4,5,5,5-pentafluoropentanesulfonyl)-ethylamino]-pentyl}-estra-1,3,5(10)-triene-3,17β-diol]
IC50 (human estrogen receptor): 0.16 nM | IC50 (MVLN cells; MVLN): 1.3 nM

CN(CCCCC[C@@H]1Cc2cc(O)ccc2[C@H]2CC[C@@]3(C)[C@@H](CC[C@]3(C)O)[C@H]12)CCCSCCCC(F)(F)C(F)(F)F [Example 2, 17α-Methyl-7α-{5-[N-methyl-N-3-(4,4,5,5,5-pentafluoropentyl-thio)-propylamino]-pentyl}-estra-1,3,5(10)-triene-3,17β-diol]
IC50 (human estrogen receptor): 0.2 nM | IC50 (MVLN cells; MVLN): 0.6 nM

CN(CCCCC[C@@H]1Cc2cc(O)ccc2[C@H]2CC[C@]3(C)[C@@H](O)CC[C@H]3[C@H]12)CCCS(=O)(=O)CCCC(F)(F)C(F)(F)F [Example 5, 7α-{5-[N-Methyl-N-3-(4,4,5,5,5-pentafluoropentanesulfonyl)-propylamino]-pentyl}-estra-1,3,5(10)-triene-3,17β-diol]
IC50 (human estrogen receptor): 0.3 nM | IC50 (MVLN cells; MVLN): 0.66 nM

CN(CCCCC[C@@H]1Cc2cc(O)ccc2[C@H]2CC[C@]3(C)[C@@H](O)CC[C@H]3[C@H]12)CCC[S+]([O-])CCCC(F)(F)C(F)(F)F (stereo partly drawn) [Example 6, 7α-{5-[N-Methyl-N-3-(4,4,5,5,5-pentafluoropentanesulfinyl)-propylamino]-pentyl}-estra-1,3,5(10)-triene-3,17β-diol]
IC50 (human estrogen receptor): 0.1 nM | IC50 (MVLN cells; MVLN): 1 nM

C#C[C@]1(O)CC[C@H]2[C@@H]3[C@H](CCCCCN(C)CCCSCCCC(F)(F)C(F)(F)F)Cc4cc(O)ccc4[C@H]3CC[C@@]21C [Example 3, 17α-Ethinyl-7α-{5-[N-methyl-N-3-(4,4,5,5,5-pentafluoropentylthio)-propylamino]-pentyl}-estra-1,3,5(10)-triene-3,17β-diol]
IC50 (human estrogen receptor): 1 nM | IC50 (MVLN cells; MVLN): 0.6 nM

— patent publication US6288051A, “7 α-(5-methylaminopentyl)-estratrienes, process for their production, pharmaceutical preparations that contain these 7 α(5-methylaminopentyl)-estratrienes as well as their use for the production of pharmaceutical agents” (Schering Aktiengesellschaft, priority 1996, dated 2001)
